Here are results for 44 compounds from ChEMBL document CHEMBL1134255, “Synthesis and evaluation of efavirenz (Sustiva) analogues as HIV-1 reverse transcriptase inhibitors: replacement of the cyclopropylacetylene side chain” (2001).

The test system of experiment [1] is Human immunodeficiency virus 1. As to the kind of experiment: Antiviral activity was evaluated against wild-type HIV-1 virus. Type of experiment: functional.
In experiment [2] the test system is Human immunodeficiency virus type 1 reverse transcriptase (Human immunodeficiency virus 1), Q72547 [K103N].

The structures appear in SMILES notation. A value given as a limit tells only on which side of the number the result lay.

Turning to `CCCOC1(C(F)(F)F)OC(=O)Nc2ccc(Cl)cc21` (stereo not drawn), the concentration for an effect of 90% (IC90) (commonly the point of the concentration-response curve where the effect stands at 90%) in experiment [1] is 5.81 nM.

For the compound `O=C1Nc2ccc(F)cc2C(C#Cc2cccnc2)(C(F)(F)F)O1` (stereo not drawn), the IC90 in experiment [1] came to 2.56 nM; in experiment [2], 329 nM.

Regarding `C=CCOC1(C(F)(F)F)OC(=O)Nc2ccc(Cl)cc21` (stereo not drawn), in experiment [1], the 90% effect concentration (IC90) was determined as 3.9 nM.

As for `C=CCOC1(C(F)(F)F)OC(=O)Nc2ccc(F)c(F)c21` (stereo not drawn), the IC90 in experiment [1] came out at 6.47 nM; in experiment [2], 1620 nM.

Regarding `COCCOC1(C(F)(F)F)OC(=O)Nc2ccc(Cl)cc21` (stereo not drawn), the 90% effect level in experiment [1] (IC90) was put at 61.4 nM.

For `O=C1Nc2ccc(F)c(F)c2C(C#Cc2cccs2)(C(F)(F)F)O1` (stereo not drawn), the values for the IC90 in experiment [1] and in experiment [2] were 2.23 nM and 156 nM, respectively.

In experiment [1], `O=C1Nc2ccc(Cl)cc2C(OCC(F)(F)C(F)(F)F)(C(F)(F)F)O1` (stereo not drawn) displayed an IC90 of 651 nM. In other words, the sub-micromolar range.

For `O=C1Nc2ccc(Cl)cc2C(OCCc2ccccc2)(C(F)(F)F)O1` (stereo not drawn), it took 167 nM to reach the 90% level in experiment [1] (IC90).

For `O=C1Nc2ccc(F)c(F)c2C(C#Cc2cccnc2)(C(F)(F)F)O1` (stereo not drawn), the IC90 came out at 2.23 nM in experiment [1] and 59.3 nM in experiment [2].

As to `O=C1Nc2ccc(Cl)cc2C(C#Cc2ccoc2)(C(F)(F)F)O1` (stereo not drawn), the IC90 in experiment [1] was found to be 3.8 nM; in experiment [2], 322 nM.

Turning to `C/C=C\COC1(C(F)(F)F)OC(=O)Nc2ccc(Cl)cc21` (stereo not drawn), the concentration for an effect of 90% (IC90) is 4.35 nM in experiment [1] and 237 nM in experiment [2].

Consider `O=C1Nc2ccc(F)c(F)c2C(C#Cc2ccsc2)(C(F)(F)F)O1` (stereo not drawn), for which the 90% effect concentration (IC90) in experiment [1] turned out to be 2.34 nM; in experiment [2], 139 nM.

For `O=C1Nc2ccc(Cl)cc2C(C#Cc2cccnc2)(C(F)(F)F)O1` (stereo not drawn), the values for the IC90 in experiment [1] and in experiment [2] were 3.97 nM and 145 nM, respectively.

In the case of `O=C1Nc2ccc(Cl)cc2C(OCc2ccccc2)(C(F)(F)F)O1` (stereo not drawn), in experiment [1], it took 17.9 nM to reach the 90% level (IC90).

Regarding `O=C1Nc2ccc(Cl)cc2C(C#Cc2ccco2)(C(F)(F)F)O1` (stereo not drawn), the IC90 in experiment [1] stood at 3.8 nM; in experiment [2], 152 nM.

Consider `CC#CCOC1(C(F)(F)F)OC(=O)Nc2ccc(Cl)cc21` (stereo not drawn), for which the IC90 was found to be 3.13 nM in experiment [1] and 310 nM in experiment [2].

`C/C=C/COC1(C(F)(F)F)OC(=O)Nc2ccc(F)cc21` (stereo not drawn): the 90% effect concentration (IC90) is 8.85 nM in experiment [1] and 1150 nM in experiment [2].

For the compound `O=C1Nc2ccc(Cl)cc2C(OCc2cccnc2)(C(F)(F)F)O1` (stereo not drawn), it took 75.3 nM to reach the 90% level in experiment [1] (IC90).

On to `CC(C)=CCOC1(C(F)(F)F)OC(=O)Nc2ccc(F)c(F)c21` (stereo not drawn), for which the figures for the IC90 in experiment [1] and in experiment [2] were 1.54 nM and 65 nM, respectively.

On to `CC(C)=CCOC1(C(F)(F)F)OC(=O)Nc2ccc(Cl)cc21` (stereo not drawn), for which the 90% effect concentration (IC90) in experiment [1] was 2.68 nM; in experiment [2], 83 nM.

With `O=C1Nc2ccc(F)c(F)c2C(OCC=C(Cl)Cl)(C(F)(F)F)O1` (stereo not drawn), the figures for the IC90 in experiment [1] and in experiment [2] were 6.35 nM and 183 nM, respectively.

Consider `O=C1Nc2ccc(F)cc2C(C#Cc2ccco2)(C(F)(F)F)O1` (stereo not drawn), for which the 90% effect level in experiment [1] (IC90) was put at 2.58 nM.

Consider `C/C=C/COC1(C(F)(F)F)OC(=O)Nc2ccc(Cl)cc21` (stereo not drawn), for which the figures for the IC90 in experiment [1] and in experiment [2] were 5.6 nM and 404 nM, respectively.

`C=CCCOC1(C(F)(F)F)OC(=O)Nc2ccc(Cl)cc21` (stereo not drawn): the IC90 in experiment [1] turned out to be 13.7 nM.

Take `N#CCCOC1(C(F)(F)F)OC(=O)Nc2ccc(Cl)cc21` (stereo not drawn): the IC90 in experiment [1] was over 1500 nM.

In the case of `O=C1Nc2ccc(F)c(F)c2C(C#Cc2ccccn2)(C(F)(F)F)O1` (stereo not drawn), the IC90 in experiment [1] amounted to 6.78 nM.

`O=C1Nc2ccc(Cl)cc2C(C#Cc2cncs2)(C(F)(F)F)O1` (stereo not drawn) gave an IC90 in experiment [1] of 6.69 nM.

Turning to `O=C1Nc2ccc(F)cc2C(C#Cc2cccs2)(C(F)(F)F)O1` (stereo not drawn), in experiment [1], the IC90 came to 2.93 nM.

On to `O=C1Nc2ccc(Cl)cc2C(C#Cc2ccsc2)(C(F)(F)F)O1` (stereo not drawn), for which the IC90 in experiment [1] came out at 4.47 nM; in experiment [2], 106 nM.

As to `CC(C)=CCOC1(C(F)(F)F)OC(=O)Nc2ccc(F)cc21` (stereo not drawn), the IC90 in experiment [1] was found to be 2.98 nM; in experiment [2], 107 nM.

The compound `O=C1Nc2ccc(Cl)cc2C(OCCC2CC2)(C(F)(F)F)O1` (stereo not drawn) registered a concentration for an effect of 90% (IC90) in experiment [1] of 8.04 nM.

The compound `O=C1Nc2ccc(F)cc2C(C#Cc2ccccn2)(C(F)(F)F)O1` (stereo not drawn) showed an IC90 in experiment [1] of 12.2 nM. This IC90 lies about 1.5-fold higher than the previous one.

Turning to `O=C1Nc2ccc(Cl)cc2C(C#Cc2ccncc2)(C(F)(F)F)O1` (stereo not drawn), the IC90 in experiment [1] was 102 nM.

`O=C1Nc2ccc(F)cc2C(OCC=C(Cl)Cl)(C(F)(F)F)O1` (stereo not drawn) returned an IC90 in experiment [1] of 11.9 nM. This IC90 lies about 8.6-fold lower than the previous one.

Turning to `CC(C)CCOC1(C(F)(F)F)OC(=O)Nc2ccc(Cl)cc21` (stereo not drawn), the IC90 in experiment [1] amounted to 10.1 nM; in experiment [2], 286 nM.

On to `O=C1Nc2ccc(Cl)cc2C(OCC=C(Cl)Cl)(C(F)(F)F)O1` (stereo not drawn), for which the IC90 stood at 9.5 nM in experiment [1] and 242 nM in experiment [2].

`O=C1Nc2ccc(F)c(F)c2C(C#Cc2ccco2)(C(F)(F)F)O1` (stereo not drawn) came in with a 90% effect concentration (IC90) in experiment [1] of 3.79 nM.

On to `O=C1Nc2ccc(F)c(F)c2C(C#Cc2ccoc2)(C(F)(F)F)O1` (stereo not drawn), for which the values for the 90% effect concentration (IC90) in experiment [1] and in experiment [2] were 3.21 nM and 280 nM, respectively.

For `CCCCOC1(C(F)(F)F)OC(=O)Nc2ccc(Cl)cc21` (stereo not drawn), the IC90 in experiment [1] came out at 10.2 nM; in experiment [2], 989 nM.

Turning to `O=C1Nc2ccc(F)cc2C(C#Cc2ccoc2)(C(F)(F)F)O1` (stereo not drawn), the IC90 in experiment [1] was 2.52 nM; in experiment [2], 369 nM.

Regarding `CCOC1(C(F)(F)F)OC(=O)Nc2ccc(Cl)cc21` (stereo not drawn), in experiment [1], the concentration for an effect of 90% (IC90) came out at 18.3 nM.

Regarding `O=C1Nc2ccc(Cl)cc2C(C#Cc2ccccn2)(C(F)(F)F)O1` (stereo not drawn), the IC90 in experiment [1] is 5.39 nM; in experiment [2], 1110 nM.

With `O=C1Nc2ccc(F)cc2C(C#Cc2ccsc2)(C(F)(F)F)O1` (stereo not drawn), the 90% effect concentration (IC90) amounted to 2.55 nM in experiment [1] and 193 nM in experiment [2].

Take `O=C1Nc2ccc(Cl)cc2C(OCC2CC2)(C(F)(F)F)O1` (stereo not drawn): the IC90 in experiment [1] stood at 7.7 nM. In other words, the single-digit nanomolar range.
